Measured values: PMC5613016, “GRL-09510, a Unique P2-Crown-Tetrahydrofuranylurethane -Containing HIV-1 Protease Inhibitor, Maintains Its Favorable Antiviral Activity against Highly-Drug-Resistant HIV-1 Variants in vitro” (Scientific Reports, 2017)

How the values were obtained:
[1] = test system: HIV-1I47V; experiment: p24 assay in MT-4 cells, recombinant clone; assay type: cell-based; conditions: Human immunodeficiency virus 1, MT4
Experimental: (§1) The susceptibility of HIV-1LAI or HIV-2ROD to various compounds was determined as previously described[20]–[22]. Briefly, MT-2 cells (10^4/ml) were exposed to 100 TCID50 of HIV-1LAI or HIV-2ROD in the presence or absence of various concentrations of compounds in 96-well plates and were incubated at 37 °C for 7 days. After incubation, 100 μl of the medium was removed from each well, 3-(4,5-dimetylthiazol-2-yl)-2,5-diphenyltetrazolium bromide (MTT) solution (10 μl, 7.5 mg/ml in PBS) was added to each well, followed by incubation at 37 °C for 2 h. […] To determine the sensitivity of clinically isolated HIV-1s to compounds, PHA-PBMC (10^6/ml) were exposed to 50 TCID50 of each HIV-1 and cultured in the presence or absence of various concentrations of compounds in 10-fold serial dilutions in 96-well plates. In determining the drug-susceptibility of certain laboratory HIV-1 strains, MT-4 cells were employed as target cells as previously described[23],[24]. MT-4 cells (10^5/ml) were exposed to 100 TCID50 of drug-resistant HIV-1s in the presence or absence of various concentrations of compounds and were incubated at 37 °C. On day 7, the supernatants were harvested and the amounts of p24 were determined by using a fully-automated chemiluminescent enzyme immunoassay system (Lumipulse f: Fujirebio, Tokyo)[35]–[37]. […] All assays were performed in duplicate, and EC50 shown in this report represent average values of two to four independent experiments. PHA-PBMCs were derived from a single donor in each independent experiment. The research protocols described in the present study were carried out in accordance with relevant guidelines and regulations, and were approved in Ethics Committee for Epidemiological and General Research at the Faculty of Life Sciences, Kumamoto University.
(§2) To generate HIV-1 clones carrying the desired AA substitutions, site-directed mutagenesis was performed with a QuikChange site-directed mutagenesis kit (Stratagene, La Jolla, CA), and the AA substitution-containing genomic fragments were introduced into pHIV-1NL4-3Sma, which had been created to have a SmaI site by changing two nucleotides (2590 and 2593) of pHIV-1NL4-3.

[2] = test system: HIV-1I84V; experiment: p24 assay in MT-4 cells, recombinant clone; assay type: cell-based; conditions: Human immunodeficiency virus 1, MT4
Experimental: as §1, §2

[3] = test system: HIV-1L10F; experiment: p24 assay in MT-4 cells, recombinant clone; assay type: cell-based; conditions: Human immunodeficiency virus 1, MT4
Experimental: as §1, §2

[4] = test system: HIV-1T91A; experiment: p24 assay in MT-4 cells, recombinant clone; assay type: cell-based; conditions: Human immunodeficiency virus 1, MT4
Experimental: as §1, §2

[5] = test system: HIV-1ERS104pre (wild-type); experiment: p24 production inhibition in PHA-PBMC; assay type: cell-based; conditions: Human immunodeficiency virus 1, PHA-PBMC, p24 Gag production
Experimental: as §1

[6] = test system: HIV-1MDR/TM; experiment: p24 production inhibition in PHA-PBMC; assay type: cell-based
Experimental: as §1

[7] = test system: HIV-1MDR/G; experiment: p24 production inhibition in PHA-PBMC; assay type: cell-based
Experimental: as §1

[8] = test system: HIV-1MDR/B; experiment: p24 production inhibition in PHA-PBMC; assay type: cell-based
Experimental: as §1

[9] = test system: HIV-1BaL (subtype B, R5); experiment: p24 production inhibition in PHA-PBMC; assay type: cell-based; conditions: Human immunodeficiency virus 1, PHA-PBMC, p24 Gag production
Experimental: as §1

[10] = test system: HIV-1MDR/C; experiment: p24 production inhibition in PHA-PBMC; assay type: cell-based
Experimental: as §1

[11] = test system: HIV-1ME46 (subtype B, X4/R5); experiment: p24 production inhibition in PHA-PBMC; assay type: cell-based; conditions: Human immunodeficiency virus 1, PHA-PBMC, p24 Gag production
Experimental: as §1

[12] = test system: HIV-1MDRmix DRV ^R 20P; experiment: p24 production inhibition in PHA-PBMC; assay type: cell-based
Experimental: as §1

[13] = test system: HIV-192UG029 (subtype A, X4); experiment: p24 production inhibition in PHA-PBMC; assay type: cell-based, HIV-1; conditions: Human immunodeficiency virus 1, read-out: EC50 HIV-192UG029 (subtype A, X4)
Experimental: as §1

[14] = Cytotoxicity against MT-2 cells (MTT assay); assay type: cell-based; conditions: human
Experimental: as §1

[15] = test system: HIV-1NL4-3 variants selected with ATV, LPV and APV; experiment: p24 assay in MT-4 cells, summary over PI-selected variants; assay type: cell-based
Experimental: (§3) The susceptibility of HIV-1LAI or HIV-2ROD to various compounds was determined as previously described[20]–[22]. Briefly, MT-2 cells (10^4/ml) were exposed to 100 TCID50 of HIV-1LAI or HIV-2ROD in the presence or absence of various concentrations of compounds in 96-well plates and were incubated at 37 °C for 7 days. After incubation, 100 μl of the medium was removed from each well, 3-(4,5-dimetylthiazol-2-yl)-2,5-diphenyltetrazolium bromide (MTT) solution (10 μl, 7.5 mg/ml in PBS) was added to each well, followed by incubation at 37 °C for 2 h. […] To determine the sensitivity of clinically isolated HIV-1s to compounds, PHA-PBMC (10^6/ml) were exposed to 50 TCID50 of each HIV-1 and cultured in the presence or absence of various concentrations of compounds in 10-fold serial dilutions in 96-well plates. In determining the drug-susceptibility of certain laboratory HIV-1 strains, MT-4 cells were employed as target cells as previously described[23],[24]. MT-4 cells (10^5/ml) were exposed to 100 TCID50 of drug-resistant HIV-1s in the presence or absence of various concentrations of compounds and were incubated at 37 °C. On day 7, the supernatants were harvested and the amounts of p24 were determined by using a fully-automated chemiluminescent enzyme immunoassay system (Lumipulse f: Fujirebio, Tokyo)[35]–[37]. […]

[16] = test system: HIV-2ROD; experiment: microbe, parasite or virus in culture; assay type: cell-based
Experimental: as §1

[17] = test system: HIV-1LAI; experiment: microbe, parasite or virus in culture; assay type: cell-based
Experimental: as §1

[18] = test system: HIVMDR strains; experiment: p24 production inhibition in PHA-PBMC, summary over HIVMDR strains; assay type: cell-based, HIV-1; conditions: Human immunodeficiency virus 1, range over clinical HIVMDR isolates, read-out: EC50 values against HIVMDR
Experimental: as §3

[19] = test system: laboratory and primary clinical HIV-1 isolates; experiment: Antiviral activity, summary over strains; assay type: cell-based; conditions: Human immunodeficiency virus 1; range over isolates; read-out: EC50 against laboratory and primary clinical HIV-1 isolates
Experimental: as §3

[20] = test system: HIV-1NL4-3; experiment: In vitro selection of resistant HIV-1 variants in MT-4 cells; assay type: cell-based
Excerpt: MT-4 cells (10^5/ml) were exposed to HIV-1NL4-3 (500 TCID50) and cultured in the presence of compounds at an initial concentration of its EC50 value. Viral replication was monitored by the determination of the amount of p24 produced by MT-4 cells. The supernatants were harvested on day 7 and were used to infect fresh MT-4 cells for the next round of culture in the presence of increasing concentrations of each compound. Proviral DNAs obtained from the lysates of infected cells were subjected to sequencing. This selection procedure was carried out until the drug concentration reached 5 μM as previously described[20]–[22]).

[21] = compared to EC50 for HIV-1ERS104pre
[22] = compared to HIV-1WT/ERS104pre, Supplemental Table 4

Compound COc1ccc(S(=O)(=O)N(CC(C)C)CC(O)C(Cc2ccccc2)NC(=O)OC2C3COC4OCC2C4C3)cc1 (stereo not drawn) [GRL-09510] has an EC50 [1] of 3.6 ± 0.5 nM, an EC50 [2] of 3.3 ± 0.3 nM and an EC50 [3] of 4.4 ± 0.2 nM. It also gave an EC50 [4] of 3.3 ± 0.4 nM, an EC50 [5] of 3.5 ± 0.1 nM and an EC50 ([6]; PHA-PBMC, p24 Gag production) of 4 ± 0.6 nM. The “fold change of EC50 HIV-1MDR/TM” value [6, 21] was 1, the EC50 ([7]; PHA-PBMC, p24 Gag production) was 3.3 ± 1.4 nM and the “fold change of EC50 HIV-1MDR/G” value [7, 21] was 1. For the same compound, the “fold change in EC50 HIV-1MDR/G” value [7, 22] was 1, the EC50 ([8]; PHA-PBMC, p24 Gag production) was 3.7 ± 0.1 nM and the “fold change of EC50 HIV-1MDR/B” value [8, 21] was 1. The EC50 [9] was 3.1 ± 0.4 nM, the EC50 ([10]; Human immunodeficiency virus 1, PHA-PBMC, p24 Gag production) was 3.2 ± 0.6 nM and the “fold change of EC50 HIV-1MDR/C” value [10, 21] was 1. For the same compound, the EC50 [11] was 1.2 ± 0.2 nM, the “fold more effective than DRV against HIV-1DRV ^R 20P” value ([12]; PHA-PBMC, p24) was 12 fold and the “fold change of EC50 HIV-1MDRmix DRV ^R 20P” value [12, 21] was 7. For the same compound, the “fold change in EC50 HIV-1MDRmixDRVR20P” value [12, 22] was 7, the EC50 ([12]; read-out: EC50 HIV-1MDRmix DRV ^R 20P, PHA-PBMC, p24 Gag production) was 25 ± 1 nM and the EC50 [13] was 2.7 ± 0.1 nM. For the same compound, the CC50 [14] was 39000 ± 700 nM, the EC50 ([15]; Human immunodeficiency virus 1, MT4, MT-4 cells, variants selected with up to 5 µM ATV, LPV, APV, read-out: EC50 against PI-selected HIV-1NL4-3 variants) was 3.7 to 4.8 nM and the “fold-differences of EC50 against PI-selected variants” value ([15]; compared to against HIV-1NL4-3) was 1~2. The EC50 ([16]; MT-2 cells, 100 TCID50, MTT assay, read-out: EC50 Against HIV-2ROD) was 1.8 ± 0.1 nM, the “Selectivity Index (CC50/EC50) MT2/HIV-2ROD” value ([16]; ratio of CC50 to EC50 against HIV-2ROD) was 21,667 and the EC50 ([17]; Human immunodeficiency virus 1, MT2, MT-2 cells, 100 TCID50, MTT assay, read-out: EC50 Against HIV-1LAI) was 1.4 ± 0.9 nM. The “Selectivity Index (CC50/EC50) MT2/HIV-1LAI” value ([17]; ratio of CC50 to EC50 against HIV-1LAI) was 27,857, the EC50 [18] was 3.2 to 4 nM and the EC50 [19] was 1.4 to 2.8 nM. For the same compound, the “selection concentration reached after 24 passages” value ([20]; HIV-1NL4-3 first exposed to 0.003 µM) was 0.105 µM, the “concentrations in which the virus began continuously failing to propagate” value ([20]; at around passage 30, selection discontinued at passage 37) was greater than 0.27 µM and the “fold greater selection concentration than the initial concentration after 24 passages” value ([20]; initial 0.003 µM) was 35 fold.
